In patent US8410309B2, “Phenoxy carboxylic acid compounds and compositions for delivering active agents” (Emisphere Technologies, Inc., priority 1999, dated 2013):
Values joined by “and” are separate entries in the source; they are usually repeats but may differ in a detail not shown here. Equal values may be shown once.

Legend:
[1] = Heparin oral/intracolonic delivery, clotting time by activated partial thromboplastin time (APTT); format: in vivo, Sprague-Dawley rats; settings: IC (intracolonic), rats; delivery agent compound 50 mg/kg, heparin 25 mg/kg, volume dose 1 ml; baseline about 20 seconds
Experimental: Oral gavage (PO) and/or intracolonic (IC) dosing solutions containing a delivery agent compound and heparin sodium USP were prepared in 25% aqueous propylene glycol. […] This dry mixture was dissolved in 25% v/v aqueous propylene glycol, vortexed, and placed in a sonicator (about 37° C.). The pH was adjusted to about 7 (6.5 to 8.5) with aqueous NaOH (2N). The dosing solution was sonicated to produce a clear solution. The final volume was adjusted to about 3.0 ml.
(§1) The typical dosing and sampling protocols were as follows. […] The dosing solution was expressed slowly into the colon by pressing the syringe plunger.
Citrated blood samples were collected by cardiac puncture following the administration of ketamine (88 mg/kg), typically at 0.25, 0.5, 1.0 and 1.5 hours after dosing. Heparin absorption was verified by an increase in clotting time measured by the activated partial thromboplastin time (APTT) according to the method of Henry, J. B., Clinical Diagnosis and Management by Laboratory Methods, Philadelphia, Pa., W.B. Saunders (1979). Previous studies indicated baseline values of about 20 seconds.

[2] = Salmon calcitonin (sCT) oral delivery, serum sCT by EIA; settings: rats, delivery agent compound dose 150 mg/kg, sCT dose 30 μg/kg
Experimental: Oral dosing (PO) compositions of a delivery agent compound and salmon calcitonin (sCT) in deionized water were prepared as described in Table 2 below. […] Either the sodium salt of the compound was used or the free acid was converted to the sodium salt by stirring the resultant solution and adding one equivalent of sodium hydroxide (1.0 N) and diluting with water. The solution was vortexed, then heated (about 37° C.) and sonicated. The pH was adjusted to about 7 (about 6.5 to 8.5) with NaOH or HCl. 90 μg sCT from a sCT stock solution (2 mg/ml made by adding 10001 pH 4 phosphate buffer to sCT and allowing it to go into solution by sitting for about 10-20 minutes and periodically gently inverting) was added to the solution.
The typical dosing and sampling protocols were as follows. Male Sprague-Dawley rats weighing between 200-250 g were fasted for 24 hours and administered ketamine (44 mg/kg) and chlorpromazine (1.5 mg/kg) 15 minutes prior to dosing and again as needed to maintain anesthesia. A dosing group of five animals was administered one of the dosing solutions. For oral dosing, an 11 cm Rusch 8 French catheter was adapted to a 1 ml syringe with a pipette tip. The syringe was filled with dosing solution by drawing the solution through the catheter, which was then wiped dry. The catheter was placed down the esophagus leaving 1 cm of tubing past the incisors. Solution was administered by pressing the syringe plunger.
Blood samples were collected serially from the tail artery, typically at time=0, 10, 20, 30, 60 and 90 minutes. […] Numbers were adjusted according to baseline values obtained at time=0. The results from the animals in each dosing group were averaged for each time point.

[3] = Recombinant human growth hormone (rhGH) oral delivery, serum rhGH by immunoassay; settings: oral gavage, rats, volume dose 1 ml
Experimental: Oral gavage (PO) dosing solutions of delivery agent compound and rhGH in phosphate buffer were prepared by mixing. A solution of the delivery agent compound was made either with the sodium salt of the delivery agent compound or by converting the free acid to its sodium salt.
The typical dosing and sampling protocols were as follows. Male Sprague-Dawley rats weighing 200-250 g were fasted for 24 hours and administered ketamine (44 mg/kg) and chlorpromazine (1.5 mg/kg) 15 minutes prior to dosing and again as needed to maintain anesthesia. A dosing group of five animals was administered one of the dosing solutions. An 11 cm Rusch 8 French catheter was adapted to a 1 ml syringe with a pipette tip. The syringe was filled with dosing solution by drawing the solution through the catheter, which was then wiped dry. The catheter was placed down the esophagus leaving 1 cm of tubing past the incisors. The dosing solution was administered by pressing the syringe plunger.
Blood samples were collected serially from the tail artery typically at time=15, 30, 45, 60 and 90 minutes. The five samples from each time period were pooled (except for those samples for which standard deviation (SD) and standard error (SE) are reported). Serum rHGH concentrations were quantified by an rHGH immunoassay test kit (Kit # K1F4015 from Genzyme Corporation Inc., Cambridge, Mass.).

[4] = Insulin oral delivery, serum human insulin by ELISA; settings: rats
Experimental: Oral dosing (PO) compositions of delivery agent compound and human zinc insulin (minimum 26 IU/mg available from Calbiochem—Novabiochem Corp, La Jolla, Calif.) were prepared in deionized water. […] The pH was adjusted to about 7 to 8.5 with NaOH or HCl. […] The final delivery agent compound dose, insulin dose and dose volume amounts are listed below in Table 8.
The typical dosing and sampling protocols were as follows.
Serum insulin levels were determined with an Insulin ELISA Test Kit (Kit # DSL-10-1600 from Diagnostic Systems Laboratories, Inc., Webster, Tex.), modifying the standard protocol in order to optimize the sensitivity and linear range of the standard curve for the volumes and concentrations of the samples used in the present protocol. […] The five values for each time point were averaged and the results plotted as serum insulin concentration versus time.

[5] = Low molecular weight heparin (LMWH) oral/intracolonic delivery, plasma LMWH by anti-Factor Xa assay; format: in vivo, Sprague-Dawley rats; settings: IC, rats, LMWH 750 IU/kg, 1 ml/kg
Experimental: Oral dosing (PO) and/or intracolonic (IC) compositions containing a delivery agent compound and low molecular weight heparin (LMWH) were prepared in 25% aqueous propylene glycol. […] Typically, the delivery agent compound and LMWH (Parnaparin, 91 IU/mg average molecular weight about 5,000, available from Opocrin, Modena, Italy) (typically 90-105 IU/mg, average molecular weight about 5,000) were mixed by vortex as dry powders. This dry mixture was dissolved in 25% v/v aqueous propylene glycol, vortexed, and placed in a sonicator (37° C.) to produce a clear solution. The pH was adjusted to about 7 (6.5-8.5) with 2N aqueous NaOH. The dosing solution was sonicated to produce a clear solution. The final volume was adjusted to 3.0 ml.
as §1
Citrated blood samples were collected by cardiac puncture following the administration of ketamine (88 mg/kg), typically at 0.5, 1.0, 2.0, 3.0 and 4.0 hours after dosing. LMWH absorption was verified by an increase in plasma LMWH measured by the anti-Factor Xa assay CHROMOSTRATE™ Heparin anti-Xa assay (available from Organon Teknika Corporation, Durham, N.C.). […] The peak of these mean plasma LMWH concentrations is reported below in Table 5.

[6] = delivery agent compound 200 mg/kg, rhGH 3 mg/kg
[7] = delivery agent compound 200 mg/kg, insulin 0.5 mg/kg, 1 ml/kg
[8] = delivery agent compound 50 mg/kg
[9] = delivery agent compound 25 mg/kg

| SMILES | Mean Peak Serum [rhGH] [3, 6] [ng/mL] | Mean Peak Serum [INS] ± SD [4, 7] [μU/ml] | Mean Peak Plasma LMWH Concentration ± SD [5, 8] [IU/ml] | Mean Peak APTT ± SD [1] | other results |
| --- | --- | --- | --- | --- | --- |
| O=C(O)CCCOc1ccccc1O [Compound 4] | 12.6 |  |  | 40.3 ± 17.8 s and 23.076 ± 4.72 s and 37.148 ± 39.67 s | Mean Peak Serum sCT (pg/ml ± SD) (SE) ([2]; dose volume 1 (ml), 150 mg/kg): 187 ± 177 pg/mL and 195 ± 436 pg/mL |
| CC(=O)c1ccccc1OCCCC(=O)O [Compound 9] | 1 |  | 0.474 ± 0.095 | 21.45 ± 1.71 s |  |
| O=C(O)CCCCCCCOc1ccccc1[N+](=O)[O-] [Compound 20] | 22.6 | 27.68 ± 12.5 |  |  | Mean Peak Serum sCT (pg/ml ± SD) (SE) ([2]; dose volume 1 (ml), 150 mg/kg): 138 ± 107 pg/mL and 85 ± 82 pg/mL and 96 ± 135 pg/mL |
| Nc1cc(Cl)ccc1OCCCCCCCC(=O)O [Compound 22] | 0 | 24.16 ± 28.11 | 1.842 ± 0.205 | 287.9 ± 120.1 s | Mean Peak Plasma LMWH Concentration ± SD ([5]; delivery agent compound 10 mg/kg): 0.396 ± 0.153 IU/ml; Mean Peak Plasma LMWH Concentration ± SD [5, 9]: 1.496 ± 0.153 IU/ml |
| Nc1cc(Cl)ccc1OCCCCC(=O)O [Compound 23] |  |  |  |  | Mean Peak Serum sCT (pg/ml ± SD) (SE) ([2]; dose volume 1 (ml), 150 mg/kg): 161 ± 150 pg/mL and 122 ± 273 pg/mL |
| CC(=O)Nc1ccccc1OCCCCCCCC(=O)O [Compound 24] | 1.76 |  |  |  |  |
| CCC(=O)c1ccccc1OCCCC(=O)O [Compound 26] | 8.3 |  | 0.262 ± 0.106 | 76.7 s and 41.534 ± 25.56 s | Mean Peak Serum [INS] ± SD ([4]; delivery agent compound 100 mg/kg, insulin 3 mg/kg, 0.5 ml/kg): 240.5 ± 528.29 μU/ml |
| CCC(=O)c1ccccc1OCCCCCC(=O)O [Compound 27] | 12.9 |  | 1.622 ± 0.265 |  | Mean Peak Serum sCT (pg/ml ± SD) (SE) ([2]; dose volume 1 (ml)): 163 ± 106 pg/mL |
| CC(C)(O)c1ccccc1OCc1ccc(C(=O)O)cc1 [Compound 37] | 29 |  |  |  |  |

The next lines start with results.

| Mean Peak Serum [rhGH] [3, 6] [ng/mL] | Mean Peak Serum [INS] ± SD [4, 7] [μU/ml] | Mean Peak Plasma LMWH Concentration ± SD [5, 8] [IU/ml] | SMILES | Mean Peak APTT ± SD [1] | other results |
| --- | --- | --- | --- | --- | --- |
| 4.88 | 13.14 ± 6.81 |  | O=C(O)CCCCCCCCCOc1ccccc1O [Compound 8] | 251.94 ± 67.96 s | Mean Peak Serum sCT (pg/ml ± SD) (SE) ([2]; dose volume 1 (ml), 150 mg/kg): 166 ± 190 pg/mL and 194 ± 239 pg/mL and 327 ± 323 pg/mL; Mean Peak Serum sCT (pg/ml ± SD) (SE) ([2]; dose volume 2 (ml)): 36 ± 49 pg/mL |
| 223 |  |  | CC=Cc1ccccc1OCCCCCCCC(=O)O [Compound 18] |  | Mean Peak Serum sCT (pg/ml ± SD) (SE) ([2]; dose volume 2 (ml)): 14 ± 4183 pg/mL; Mean Peak Serum [rhGH] ([3]; delivery agent compound 162 mg/kg, rhGH 2.6 mg/kg): 3.1 ng/mL |
| 39.5 | 4.32 ± 1.39 | 0.65 ± 0.37 | Nc1ccccc1OCCCCCCCC(=O)O [Compound 19] |  |  |
| 19.6 | 14.46 ± 21.61 |  | Nc1ccccc1OCCCCC(=O)O [Compound 21] |  |  |
|  |  | 1.64 ± 0.45 | CCC(=O)c1ccccc1OCCCCCCCC(=O)O [Compound 28] | 143.6 ± 44 s and 251.1 ± 109.34 s | Mean Peak Plasma LMWH Concentration ± SD [5, 9]: 1.43 ± 0.31 IU/ml; Mean Peak Serum sCT (pg/ml ± SD) (SE) ([2]; dose volume 1 (ml)): 138 ± 90 pg/mL |
| 0 |  |  | CCC(=O)c1ccccc1OCCCCCCCCCC(=O)O [Compound 29] | 105.01 ± 115.28 s and 111.46 ± 108.58 s |  |
|  | 132.3 ± 154.5 |  | COc1ccccc1OCCCCCCCC(=O)O [Compound 35] | 65.8 ± 35.5 s |  |
| 0 |  |  | CC(O)c1ccccc1OCCCCCCCC(=O)O (stereo not drawn) [Compound 36] |  | Mean Peak Serum sCT (pg/ml ± SD) (SE) ([2]; dose volume 1 (ml)): 0 ± 62 pg/mL |
